Experimental data as given in US20220227745A1, “Compounds For Modulating FXR” (NANJING RUIJIE PHARMA TECH CO., LTD., priority 2019, published 2022).

Experiments:
FXR LBD, GST = target: T1, FXR LBD, GST (Homo sapiens, UniProt Q96RI1); experiment: FXR Binding Assay (TR-FRET, Fluorescein-SRC2-2 coactivator peptide); conditions: for Emax / Pct Effect (Emax %): % Activity relative to positive control; for Emax: read-out: Pct Effect (Emax %); for EC50: TR-FRET FXR LBD coactivator recruitment
T1 construct: FXR LBD, GST; purchased Invitrogen PV4834
T1 sequence (Q96RI1 262-486 limits assumed): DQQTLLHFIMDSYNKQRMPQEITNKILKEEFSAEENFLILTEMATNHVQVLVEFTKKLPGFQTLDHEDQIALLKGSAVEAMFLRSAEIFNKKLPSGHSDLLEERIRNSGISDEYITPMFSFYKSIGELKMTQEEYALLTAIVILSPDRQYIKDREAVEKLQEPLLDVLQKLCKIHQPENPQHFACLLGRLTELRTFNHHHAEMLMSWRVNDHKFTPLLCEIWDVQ

[1] = target: T2, hFXR-LBD (FXR-GAL4 chimeric receptor) (Homo sapiens, UniProt Q96RI1); experiment: FXR Transactivation Assay (GAL4 luciferase reporter in HEK293T cells); format: cell-based
T2 construct: host or cells: HEK293T
T2 sequence (Q96RI1 262-486 limits assumed): T1 sequence (Q96RI1 262-486 limits assumed)
Experimental: FXR Transactivation Assay
The present compounds were tested to assess their ability to stimulate FXR transactivation activity. The hFXR-LBD, coding sequence was inserted into the pBIND expression vector (Promega, E1581) to express FXR-GAL4 binding domain chimeric receptors. This expression vector and reporter vector (pGL4.35 which carry a stably integrated GAL4 promoter driven luciferase reporter gene) were co-transfected into HEK293T host cells. Upon agonist binding to the corresponding FXR-GAL4 chimeric receptor, the chimeric receptor binds to the GAL4 binding sites and stimulates the reporter gene.
All the working stock were shake for 5 min on plate shaker (QILINBEIER). Second, all cells were cultured as ATCC recommended. HEK293T cells were assayed in exponential growth phase. Removed culture medium from the flask and rinsed cells with PBS. Added TrypLE solution to the flask and make cells detach. Next, cells were washed once with complete growth medium. Then, cells were pelleted and washed twice with PBS to remove phenol red and resuspend them in medium to a proper concentration. Only cells with viability greater than 90% were used for assays. Seeded 6×10^6 HEK293T cells into a 100 mm dish and incubated at 37° C. under 5% CO2 atmosphere for 16 h. Third, Trans-IT reagent and Opti-MEM mix by inversion and incubate 5 min at room temperature. The cell transfection was performed by mixing DNA and the reagent mixture, as well as 6 μg GAL4-FXR plasmid or 2 μg pGL4.35 luciferase plasmid, respectively. The reagent mixture was added to a 100 mm dish and incubated for 4-7 hrs at 37° C. under 5% CO2 atmosphere. Fourth, transferred 75 nl compound dilutions into 384-well assay plates (PerkinElmer) and seeded HEK293T cells at 17,000 cells/well using phenol red-free DMEM containing 5% charcoal/dextran-treated FBS. Then, cells were incubated for 16-20 h at 37° C. under 5% CO2 atmosphere. Finally, added 25 μl Steady-Glo™ Luciferase Assay Reagent into each well of 384-well assay plate, and then shake plate for 5 min protected from light on a plate shaker. Then, the luminescence value was read on Evision 2104 plate reader (PerkinElmer).
The activity ratio was calculated as follow: […]
RLU: Resulting Luminescence
RLUpositive: The average RLU for the positive controls across the plate.
RLUvehicle: The average RLU for negative controls across the plate.
EC50 was calculated by fitting % Activity values and log of compound concentrations to nonlinear regression (dose response-variable slope) with GraphPad 5.0.
X: log of compound concentration.

FXR = target: T3, FXR (Homo sapiens, UniProt Q96RI1); conditions: cited from earlier work
T3 sequence (Q96RI1 1-486): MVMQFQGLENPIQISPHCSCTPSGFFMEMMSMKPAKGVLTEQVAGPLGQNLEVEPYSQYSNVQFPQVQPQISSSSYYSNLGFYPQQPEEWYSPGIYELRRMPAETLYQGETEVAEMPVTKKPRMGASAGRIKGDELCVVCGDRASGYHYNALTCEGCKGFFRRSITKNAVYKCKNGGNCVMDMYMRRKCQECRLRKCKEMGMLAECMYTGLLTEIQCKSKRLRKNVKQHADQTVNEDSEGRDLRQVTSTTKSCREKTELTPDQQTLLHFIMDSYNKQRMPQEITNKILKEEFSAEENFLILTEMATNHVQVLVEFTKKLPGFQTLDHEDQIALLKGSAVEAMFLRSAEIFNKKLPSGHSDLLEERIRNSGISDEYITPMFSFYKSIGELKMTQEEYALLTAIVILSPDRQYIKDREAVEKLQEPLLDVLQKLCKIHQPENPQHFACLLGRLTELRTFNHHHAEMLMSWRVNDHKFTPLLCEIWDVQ

[2] = in vivo; cited from earlier work
[3] = cited from earlier work
other nuclear receptor = conditions: cited from earlier work
[4] = preclinical species; cited from earlier work
[5] = OCA treatment, clinical studies; cited from earlier work

Compound | Emax (FXR LBD, GST) [%] | EC50 (FXR LBD, GST) [µM] | EC50 [1] [µM] | other results
Cn1cc(C(=O)O)c2ccc(N3CCN(CCc4c(-c5c(Cl)cccc5Cl)noc4C4CC4)C(C)(C)C3)cc21 [Example I38, 6-(4-(2-(5-cyclopropyl-3-(2,6-dichlorophenyl)isoxazol-4-yl)ethyl)-3,3-dimethylpiperazin-1-yl)-1-methyl-1H-indole-3-carboxylic Acid] | 133 | 0.048 | 0.377 | –
C[C@@H]1CN(CCc2c(-c3c(Cl)cccc3Cl)noc2C2CC2)CCN1c1ccc2c(C(=O)O)cn(C)c2c1 [Example I40, (R)-6-(4-(2-(5-cyclopropyl-3-(2,6-dichlorophenyl)isoxazol-4-yl)ethyl)-2-methylpiperazin-1-yl)-1-methyl-1H-indole-3-carboxylic Acid] | 131 | 0.077 | 0.343 | –
Cn1cc(C(=O)O)c2cc(F)c(N3CCN(CCc4c(-c5c(Cl)cccc5Cl)noc4C4CC4)CC3)cc21 [Example I42, 6-(4-(2-(5-cyclopropyl-3-(2,6-dichlorophenyl)isoxazol-4-yl)ethyl)piperazin-1-yl)-5-fluoro-1-methyl-1H-indole-3-carboxylic Acid] | – | 0.099 | 0.551 | Pct Effect (Emax %) (FXR LBD, GST): 196.20%
Cn1cc(C(=O)O)c2cc(F)c(N3CCN(CCc4c(-c5c(Cl)cccc5Cl)noc4C4CC4)CC3)cc21 [Example I45, 6-(4-(2-(5-cyclopropyl-3-(2,6-dichlorophenyl)isoxazol-4-yl)ethyl)piperazin-1-yl)-5-fluoro-1-methyl-1H-indole-3-carboxylic Acid] | – | 0.072 | 0.224 | Pct Effect (Emax %) (FXR LBD, GST): 161.70%
CN(Cc1c(-c2c(Cl)cccc2Cl)noc1C1CC1)C1CCN(c2ccc3c(C(=O)O)cn(C)c3c2)CC1 [Example I58, 6-(4-(((5-cyclopropyl-3-(2,6-dichlorophenyl)isoxazol-4-yl)methyl)(methyl)amino)piperidin-1-yl)-1-methyl-1H-indole-3-carboxylic Acid] | 83.4 | 0.497 | 2.27 | –
CC(C)c1onc(-c2c(Cl)cccc2Cl)c1COc1ccc(/C=C/c2cccc(C(=O)O)c2)c(Cl)c1 [GW4604] | – | – | – | agonistic activity to FXR (FXR): strong agonistic activity; bioavailability [2]: low bioavailability
O=C(O)c1cc(F)c2nc(N3[C@@H]4CC[C@H]3C[C@@H](OCc3c(-c5ccccc5OC(F)(F)F)noc3C3CC3)C4)sc2c1 [LJN452] | – | – | – | drug-related pruritus ([3]; after multiple doses): No drug-related pruritus was observed; ALT/AST ([3]; individual subjects): ALT/AST increased in individual subjects; drug-related adverse reactions ([3]; single dose of up to 3 mg): No drug-related adverse reactions were observed; safety and tolerability ([3]; single dose of up to 3 mg): performed well in safety and tolerability
Cn1cc(C(=O)O)c2ccc(N3CCC(OCc4c(-c5c(Cl)cccc5Cl)noc4C4CC4)CC3)cc21 [LY-2562175] | – | – | – | transcriptional activation of other nuclear receptor (other nuclear receptor): didn't promote transcriptional activation of other nuclear receptor; effect on LDL, triglycerides and HDL [4]: lowered LDL and triglycerides while raising HDL
CC[C@H]1[C@@H](O)[C@@H]2[C@H](CC[C@]3(C)[C@@H]([C@H](C)CCC(=O)O)CC[C@@H]23)[C@@]2(C)CC[C@@H](O)C[C@@H]12 [OCA, 6α-ethyl-chenodeoxycholic acid] | – | – | – | pruritus [5]: may be associated with increased pruritus
